Test results reported in patent US20240327456A1, “CANCER THERAPEUTICS” (UNIVERSITAT DE BARCELONA, priority 2021, published 2024).
Square brackets hold non-standard residues; d marks the D form. Peptide text beside a SMILES is read from it. * marks the point of attachment. Chg = N[CH](C(=O)O)C1CCCCC1; X1 = C1CCC2(CC1)CCN(*)CC2; PhAc = O=C(Cc1ccccc1)*

Experiments:
[1] = Solubility in PBS with 15% β-cyclodextrin; type: physicochemical; conditions: 1 mM, 24 hours agitation, supernatant by HPLC; mean±SD
Procedure: xxxxx Furthermore, an additional effort was done to reevaluate those peptidomimetics from the first generation that were not soluble in the in vitro assay conditions or formed aggregates as described above when incubated with the RPE cells.
We then put these peptidomimetics under constant agitation for 24 hours. […] Data are expressed as the mean±SD.

[2] = Solubility when diluted in cell medium (in vitro assay conditions); conditions: cell culture assay conditions

Conc. in PBS β-cyclodextrin 15% [1]: 844 ± 4 µM
Solubility when diluted in cell medium [2]: not soluble
SMILES: CC(C)CC(NC(=O)C(Cc1c[nH]c2ccccc12)NC(=O)C(NC(=O)C(CCCCN)NC(=O)Cc1ccccc1)C1CCCCC1)C(=O)N1CCC2(CCCCC2)CC1 (centres unmarked) [IP-14-06] (PhAc-K[Chg]WL-X1; configuration not given here)
